Assay results as given in US20180280321A1, “COMPOSITIONS AND METHODS THAT INHIBIT QUORUM SENSING” (The Office of Innovation Commercialization, priority 2015, published 2018).
Entries after “also recorded” stand apart in the source; their conditions may differ. Like-named read-outs stand apart in the source and are kept apart here.

Columns and labels:
agr::P3 promoter [1] = format: cell-based, S. aureus
S. aureus = format: cell-based; conditions: at concentrations that inhibit quorum sensing
[2] = test system: RNAIII, psm α and hla transcription; format: cell-based, S. aureus
A549 cells = assay: Eukaryotic cytotoxicity, XTT assay; format: cell-based, human; conditions: A549, 24-hour incubation, at concentrations required for agr-inhibition
Experimental: (§1) Sigma-Aldrich, St. Louis, Mo.) and phenazine methosulfate (PMS; Sigma-Aldrich, St. Louis, Mo.) were used to perform an XTT assay as previously described (Scuderio et al., 1988, Cancer Res. 48:4827-4833). After 24 hours, spent media was removed and fresh media containing the indicated drug concentrations or vehicle was added to the cells and incubated for an additional 24 hours. […] Cell viability was assessed by the metabolic reduction of tetrazolium measured at OD490. Data are presented as percent viable cells compared to vehicle control.

HEK293 cells = assay: Eukaryotic cytotoxicity, XTT assay; format: cell-based, human; conditions: HEK293, 24-hour incubation, at concentrations required for agr-inhibition
Experimental: as §1

HepG2 cells = assay: Eukaryotic cytotoxicity, XTT assay; format: cell-based, human; conditions: hepatocyte cell line (HepG2), 24-hour incubation, at concentrations required for agr-inhibition
Experimental: as §1

AgrC-WT isolate AH3469 = format: cell-based, S. aureus
AgrAC and P2-FAM complex = AgrAC and P2-FAM complex (Staphylococcus aureus, UniProt P0A0I7); format: binding, S. aureus; conditions: EMSA, 2 μM AgrAC
[3] = biological target: AgrAC binding to agr promoter DNA (P2-FAM) (Staphylococcus aureus, UniProt P0A0I7); set-up: species or system S. aureus; conditions: bead-based flow cytometry, biotinylated AgrAC on SA beads, P2-FAM 1.6 μM
AgrAC-C199S = AgrAC-C199S (Staphylococcus aureus, UniProt P0A0I7, C199S); format: binding, S. aureus; conditions: SPR, His-tagged AgrAC-C199S on NTA biosensor, 25° C.
agr::P3 promoter [4] = format: cell-based; conditions: agr-I S. epidermidis AH3408, 5 μg/mL OHM, 24 hours
USA300 isolate LAC = format: in vivo, SKH1 mice; conditions: for bacterial burden at the site of infection: LAC infected, single OHM treatment
[5] = test system: S. aureus LAC / LACΔagr in RAW 264.7 macrophages; format: cell-based, mouse; conditions: LAC pre-treated with 5 μg/mL OHM, RAW 264.7, MOI 1:1; vs vehicle
[6] = test system: S. aureus LAC / LACΔagr in human PMNs; format: cell-based
human PMNs = format: cell-based; conditions: supernatant from OHM- versus vehicle-treated LAC, 5 μg/mL OHM, two hours
MRSA isolate LAC [7] = format: in vivo, SKH1 mice; conditions: OHM injected subq near the site of infection four hours post-infection
MRSA isolate LAC [8] = format: in vivo; conditions: STZ-treated diabetic C57BL/6 mice, OHM given along with 5×10^7 CFU LAC

O=C1c2cc(O)cc(O)c2C(=O)c2c(O)cc(CO)cc21 [OHM, 1,3,8-trihydroxy-6-(hydroxymethyl)anthracene-9,10-dione]
agr::P3 promoter activation (quorum sensing) (agr::P3 promoter [1]; agr-I, agr-II, agr-III, agr-IV reporter strains, OHM 100 to 0.05 μM): inhibited quorum sensing by all four agr types | in vitro agr-I transcription inhibition activity (agr::P3 promoter [1]; among polyhydroxyanthraquinones from Penicillium restrictum): most potent | bacterial growth (OD600) (S. aureus): do not impact bacterial growth; also recorded: absence of bactericidal or bacteriostatic effects | transcription of RNAIII [2]: decreased transcription | transcription of alpha-hemolysin (hla) [2]: decreased transcription | cell viability (toxicity) (A549 cells): non-toxic | cell viability (toxicity) (HEK293 cells): non-toxic | cell viability (toxicity) (HepG2 cells): non-toxic | agr-mediated Hla expression (lysis of rabbit RBCs) (AgrC-WT isolate AH3469): inhibited Hla expression | inhibition of AgrAC binding to agr promoter DNA (AgrAC and P2-FAM complex): dose-dependent inhibition | inhibition of AgrAC binding to agr promoter DNA [3]: dose-dependent inhibition | direct binding to immobilized AgrAC (AgrAC-C199S): bound directly | agr activation (agr::P3 promoter) (agr::P3 promoter [4]): significantly inhibited | bacterial burden at the site of infection (USA300 isolate LAC; day seven post-infection): reduced | bacterial burden at the site of infection (USA300 isolate LAC; day three post-infection): reduced | differences between OHM and vehicle treated mice (abscesses and ulcers) (USA300 isolate LAC; mouse, in vivo): no differences were observed | histological analysis of skin sections: abscess formation and ulceration (USA300 isolate LAC; mouse, in vivo): overall reduction in abscess formation and ulceration | local Hla expression at the site of infection (western blot) (USA300 isolate LAC; mouse, in vivo): decreased local Hla expression | local IL-1β in abscess tissue (multiplex) (USA300 isolate LAC; mouse, in vivo): significant reductions | local IL-6 in abscess tissue (multiplex) (USA300 isolate LAC; mouse, in vivo): significant reductions | local TNFα in abscess tissue (multiplex) (USA300 isolate LAC; mouse, in vivo): significant reductions | transcription of il-1β in abscess tissue (USA300 isolate LAC; mouse, in vivo): reduced transcription | transcription of il-6 in abscess tissue (USA300 isolate LAC; mouse, in vivo): reduced transcription | transcription of nlrp3 in abscess tissue (USA300 isolate LAC; mouse, in vivo): decreased transcription | transcription of tnfα in abscess tissue (USA300 isolate LAC; mouse, in vivo): reduced transcription | morbidity (assessed by weight loss) (USA300 isolate LAC; mouse, in vivo, 0.25 mg/kg): significantly inhibited | abscess formation (USA300 isolate LAC; mouse, in vivo, sc, 0.25 mg/kg): significantly inhibited | ulcer (dermonecrosis) formation (USA300 isolate LAC; mouse, in vivo, sc, 0.25 mg/kg): significantly inhibited | intracellular killing by mouse macrophages [5]: significantly increased intracellular killing | intracellular killing by human PMNs ([6]; LAC pre-treated with 5 μg/mL OHM, MOI 1:1, vs vehicle): significantly increased intracellular killing | opsonophagocytosis: total number and percent of bacteria phagocytosed ([6]; bacteria pre-treated with vehicle or OHM, human PMNs): equivalent | PMN survival in the presence of S. aureus supernatant (human PMNs): significantly increased survival | abscess formation (MRSA isolate LAC [7]): limits abscess formation | ulcer area (dermonecrosis) (MRSA isolate LAC [7]): limits abscess formation and dermonecrosis | abscess formation (MRSA isolate LAC [8]): limits abscess formation | ulcer formation (dermonecrosis) (MRSA isolate LAC [8]): limits abscess formation and dermonecrosis
